For test [1], the system named is VEGF-induced and bFGF-induced corneal neovascularization. The following applies: further studies, reported; cited from earlier work.
Test [2] has as its system human vascular endothelial cells (HUVECS). The test is described as follows: Endothelial cell proliferation, 3H-thymidine uptake assay. It counts as cell-based. The note with it: for % Inhibition vs 10% Serum / Average ([3H]-thymidine incorporation, radioactivity) / Well 1 ([3H]-thymidine incorporation, radioactivity) / Well 2 ([3H]-thymidine incorporation, radioactivity) / Well 3 ([3H]-thymidine incorporation, radioactivity) / Well 4 ([3H]-thymidine incorporation, radioactivity): Table 1A. The method, then:
After 20 h, [^3H]-thymidine (2 μCi/ml) was added to the culture medium for 2-4 h. The [^3H]-thymidine incorporation was stopped with ice-cold PBS (3 washes) and the cells were incubated with cold 10% trichloroacetic acid (TCA) for 10 min at 4C. The cells were further incubated with TCA at room temperature for 10 min and washed three times with PBS. The cells were solubilized overnight with 1N NaOH and neutralized with an equivalent amount of 1N HCl before radioactivity was determined. […]
In general terms: Incorporation of labelled thymidine or its analogues reports DNA synthesis.

Test [3] deals with endothelial cells. The note with it: reported; cited from earlier work.
For test [4], the system named is vascular endothelial growth factor (VEGF) and basic fibroblast growth factor (bFGF) induced angiogenesis. The note with it: has been reported; cited from earlier work.

As for `O=C1CC[C@H](N2C(=O)c3ccccc3C2=O)C(=O)N1` [S(−)-enantiomer of thalidomide], the “anti-angiogenic activity in VEGF-induced and bFGF-induced corneal neovascularization” value in test [1] is “potent anti-angiogenic activity”.

As for `O=C1CCC(N2C(=O)c3ccccc3C2=O)C(=O)N1` (stereo not shown) [STD, thalidomide], in test [2] (3H-thymidine uptake), the “effect on endothelial cell proliferation (in words)” value was “significant inhibition of endothelial cell proliferation”. Further, in test [2] (38.5 uM), the “% Inhibition vs 10% Serum” value is recorded as −61.49%; the “Average ([3H]-thymidine incorporation, radioactivity)” value (“Average” for short) is recorded as 2700.214; the “Well 1 ([3H]-thymidine incorporation, radioactivity)” value was found to be 1835.938; the “Well 2 ([3H]-thymidine incorporation, radioactivity)” value is 2018.496. Further, in test [2] (38.5 uM), the “Well 3 ([3H]-thymidine incorporation, radioactivity)” value came to 4751.43 and the “Well 4 ([3H]-thymidine incorporation, radioactivity)” value is listed as 2194.99. In addition, in test [2] (96 uM), the “% Inhibition vs 10% Serum” value is on record as 30.39%; the “Average” value was determined as 1163.906; the “Well 1 ([3H]-thymidine incorporation, radioactivity)” value came out at 1736.688; the “Well 2 ([3H]-thymidine incorporation, radioactivity)” value is 850.094. Also, in test [2] (96 uM), the “Well 3 ([3H]-thymidine incorporation, radioactivity)” value amounted to 1083.54 and the “Well 4 ([3H]-thymidine incorporation, radioactivity)” value is 985.3011. Besides, in test [2] (192.5 uM), the “% Inhibition vs 10% Serum” value is on record as 78.48%; the “Average” value was determined as 359.8271; the “Well 1 ([3H]-thymidine incorporation, radioactivity)” value worked out at 255.2577; the “Well 2 ([3H]-thymidine incorporation, radioactivity)” value came to 435.4396. Besides, in test [2] (192.5 uM), the “Well 3 ([3H]-thymidine incorporation, radioactivity)” value stood at 336.7686 and the “Well 4 ([3H]-thymidine incorporation, radioactivity)” value stood at 411.8425. Besides, in test [2] (289 uM), the “% Inhibition vs 10% Serum” value came out at 85.34%; the “Average” value came out at 245.0808; the “Well 1 ([3H]-thymidine incorporation, radioactivity)” value amounted to 198.4536; the “Well 2 ([3H]-thymidine incorporation, radioactivity)” value is on record as 273.8429. Further, in test [2] (289 uM), the “Well 3 ([3H]-thymidine incorporation, radioactivity)” value was 272.3789 and the “Well 4 ([3H]-thymidine incorporation, radioactivity)” value was 235.6478. Besides, in test [2] (385 uM), the “% Inhibition vs 10% Serum” value was found to be 86.86%; the “Average” value came to 219.7341; the “Well 1 ([3H]-thymidine incorporation, radioactivity)” value is 141.5772; the “Well 2 ([3H]-thymidine incorporation, radioactivity)” value was determined as 255.4687. Also, in test [2] (385 uM), the “Well 3 ([3H]-thymidine incorporation, radioactivity)” value is 210.2551 and the “Well 4 ([3H]-thymidine incorporation, radioactivity)” value was 271.6354. For the same compound, in test [3], the “inhibition of the in vitro proliferation of endothelial cells” value is given as “ability to inhibit”. Besides, in test [4], the “anti-angiogenic efficacy against VEGF and bFGF induced angiogenesis” value is “significant anti-angiogenic efficacy”.

The values are drawn from patent publication US20050119300A1, “Development of novel regulators of angiogenesis” (priority 2002, published 2005).
